Where two headings read alike, the source gives them in different places.
Columns and labels:
human CB2R = target: T1, human CB2R (Homo sapiens, UniProt P34972); assay: CB2R mediated modulation of cAMP synthesis; type: cell-based
T1 construct: host or cells: CHO cells
Description: B. CB2R Mediated Modulation of Camp Synthesis:
Compounds of the invention are evaluated for their CB2 agonist or inverse agonistic activity in accordance with the following experimental method.
(§1) CHO cells expressing human CB2R (Euroscreen) are plated at a density of 5000 cells per well in 384 well plates and incubated overnight at 37° C. After removing the media, the cells are treated with test compounds diluted in stimulation buffer containing 1 mM IBMX, 0.25% BSA and 10 uM Forskolin. The assay is incubated for 30 minutes at 37° C. Cells are lysed and the cAMP concentration is measured using DiscoverX-XS cAMP kit, following the manufacturer's protocol. In this setting, agonists will decrease forskolin induced production of cAMP while inverse agonists will further increase forskolin induced production of cAMP. EC50 of agonists are calculated as follows. The maximal amount of cAMP produced by forskolin compared to the level of cAMP inhibited by 1 uM CP55940 is defined as 100%. The EC50 value of each test compound is determined as the concentration at which 50% of the forskolin-stimulated cAMP synthesis is inhibited. Data is analyzed using a four-parameter logistic model. (Model 205 of XLfit 4.0).

human CB1R = target: T2, human CB1R (Homo sapiens, UniProt P21554); assay: CB1R mediated modulation of cAMP synthesis; type: cell-based; details: inhibition of forskolin-stimulated cAMP synthesis
T2 construct: host or cells: CHO cells
Description: C. CB1R Mediated Modulation of cAMP Synthesis:
Compounds of the invention are evaluated for their CB1 agonist or inverse agonistic activity in accordance with the following experimental method.
as §1, with “CB1R” for “CB2R”

[1] = CB1 EC50, CHO cells expressing human CB1R
[2] = CHO cells expressing human CB2R, inhibition of forskolin-stimulated cAMP synthesis, read-out: CB2 EC50
[3] = CHO cells expressing human CB1R, read-out: CB1 EC50

T1 sequence (P34972 whole entry): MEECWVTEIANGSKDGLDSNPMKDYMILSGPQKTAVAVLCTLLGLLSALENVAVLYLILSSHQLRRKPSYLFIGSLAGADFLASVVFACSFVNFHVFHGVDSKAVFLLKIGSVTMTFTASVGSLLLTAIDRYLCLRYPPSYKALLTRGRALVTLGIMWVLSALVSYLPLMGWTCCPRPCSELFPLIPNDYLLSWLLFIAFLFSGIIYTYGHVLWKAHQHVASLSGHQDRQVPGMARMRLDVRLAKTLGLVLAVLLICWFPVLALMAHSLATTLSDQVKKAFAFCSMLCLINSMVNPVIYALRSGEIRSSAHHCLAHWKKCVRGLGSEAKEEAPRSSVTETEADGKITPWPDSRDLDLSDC
T2 sequence (P21554 whole entry): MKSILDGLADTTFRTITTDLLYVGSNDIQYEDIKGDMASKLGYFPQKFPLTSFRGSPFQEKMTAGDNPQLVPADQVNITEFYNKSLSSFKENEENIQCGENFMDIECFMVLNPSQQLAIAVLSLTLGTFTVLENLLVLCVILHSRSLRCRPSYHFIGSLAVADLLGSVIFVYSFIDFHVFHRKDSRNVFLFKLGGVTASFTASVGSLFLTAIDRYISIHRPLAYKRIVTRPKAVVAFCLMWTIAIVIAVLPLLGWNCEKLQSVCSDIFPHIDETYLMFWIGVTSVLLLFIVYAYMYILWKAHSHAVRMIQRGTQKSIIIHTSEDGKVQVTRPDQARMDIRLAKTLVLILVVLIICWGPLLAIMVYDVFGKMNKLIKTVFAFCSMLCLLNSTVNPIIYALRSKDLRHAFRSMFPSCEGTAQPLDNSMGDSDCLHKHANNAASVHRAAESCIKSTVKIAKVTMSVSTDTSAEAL

SMILES | EC50 (human CB2R) [nM] | EC50 (human CB1R; [1]) [nM] | EC50 (human CB2R; [2]) [nM] | EC50 (human CB1R; [3]) [nM]
Cc1ncc(C(C)(C)c2cc(NC(=O)C(C)(C)S(=O)(=O)C3CCOCC3)on2)o1 | 6.8 | > 200000 |  | 
CC(C)(c1cc(NC(=O)C(C)(C)S(=O)(=O)C2CCOCC2)on1)c1cnc(-c2ccccc2)o1 | 21 | > 50000 |  | 
CC(C)(C(=O)Nc1nc(-c2ncco2)n[nH]1)S(=O)(=O)C1CCOCC1 | 84 | > 50000 |  | 
Cc1cc(-c2n[nH]c(NC(=O)C(C)(C)S(=O)(=O)C3CCOCC3)n2)no1 |  |  | 268 | > 50000
Cc1cc(-c2nnc(NC(=O)C(C)(C)S(=O)(=O)CCC(C)C)[nH]2)no1 | 37 | > 50000 |  | 
Cc1cc(-c2nnc(NC(=O)C(C)(C)S(=O)(=O)CCCC(F)(F)F)[nH]2)no1 |  |  | 271 | > 50000
CC(C)(C(=O)Nc1nnc(-c2nccs2)[nH]1)S(=O)(=O)C1CCOCC1 |  |  | 303 | > 50000
CC(C)CCS(=O)(=O)C(C)(C)C(=O)Nc1nnc(-c2ncco2)[nH]1 |  |  | 172 | > 50000
Cc1cc(-c2n[nH]c(NC(=O)C(C)(C)S(=O)(=O)C3CCOCC3)n2)n(C)n1 |  |  | 487 | > 50000
Cc1cc(-c2nnc(NC(=O)C(C)(C)S(=O)(=O)C3CCCCC3)[nH]2)on1 | 55 | > 20000 |  | 
Cc1cc(-c2nnc(NC(=O)C(C)(C)S(=O)(=O)CCC3CCOCC3)[nH]2)on1 |  |  | 142 | > 50000
Cc1cc(-c2nnc(NC(=O)C(C)(C)S(=O)(=O)CCC(C)C)[nH]2)on1 |  |  | 142 | > 50000
Cc1nnc(C(C)(C)c2cc(NC(=O)C(C)(C)S(=O)(=O)c3ccc(F)cc3)on2)o1 | 97 | > 50000 |  | 
Cc1nnc(C(C)(C)c2cc(NC(=O)C(C)(C)S(=O)(=O)CCCC(F)(F)F)on2)o1 | 18 | 23100 |  | 
Cc1ncc(C(C)(C)c2cc(NC(=O)C(C)(C)S(=O)(=O)C3CCOCC3)on2)s1 | 3.4 | > 50000 |  | 
Cc1ncc(C(C)(C)c2cc(NC(=O)C(C)(C)S(=O)(=O)C3CCN(S(C)(=O)=O)CC3)on2)s1 | 28 | 25100 |  | 
CCc1ncc(C(C)(C)c2cc(NC(=O)C(C)(C)S(=O)(=O)C3CCN(S(C)(=O)=O)CC3)on2)o1 | 25 | 26500 |  | 
Cc1nnc(C(C)(C)c2cc(NC(=O)C(C)(C)S(=O)(=O)C3CCN(S(C)(=O)=O)CC3)on2)o1 |  |  | 161 | > 50000
Cc1ncc(C2(c3cc(NC(=O)C(C)(C)S(=O)(=O)C4CCOCC4)on3)CCCC2)o1 [drawing 84] | 4.6 | 30000 |  | 
Cc1ncc(C2(c3cc(NC(=O)C(C)(C)S(=O)(=O)C4CCOCC4)on3)CCCC2)o1 [drawing 89] |  | 30000 |  | 

From patent publication US8383651B2, “Compounds which selectively modulate the CB2 receptor” (Boehringer Ingelheim International GmbH, priority 2009, dated 2013)
